Assays:
L1210 = assay: Cytotoxicity against mouse L1210 cells assessed as growth inhibition after 72 hrs by phosphatase assay; type: functional, cell-based; conditions: L1210, 72 h
HCT-116 = assay: Cytotoxicity against human HCT116 cells assessed as growth inhibition after 72 hrs by phosphatase assay; type: functional, cell-based; conditions: HCT-116, 72 h
HCT-116/VM46 = assay: Cytotoxicity against human vinblastine-resistant HCT116/VM46 cells assessed as growth inhibition after 72 hrs by phosphatase assay; type: functional, cell-based; conditions: HCT-116/VM46, 72 h
Tubulin (Sus scrofa) = Tubulin (Sus scrofa) (UniProt P02554+P02550); assay: Displacement of [3H]Vinblastine from pig tubulin at 7.2 x 10^-5 M after 60 mins; type: protein assay
Chain of Tubulin (Sus scrofa) (P02550 whole entry, looked up): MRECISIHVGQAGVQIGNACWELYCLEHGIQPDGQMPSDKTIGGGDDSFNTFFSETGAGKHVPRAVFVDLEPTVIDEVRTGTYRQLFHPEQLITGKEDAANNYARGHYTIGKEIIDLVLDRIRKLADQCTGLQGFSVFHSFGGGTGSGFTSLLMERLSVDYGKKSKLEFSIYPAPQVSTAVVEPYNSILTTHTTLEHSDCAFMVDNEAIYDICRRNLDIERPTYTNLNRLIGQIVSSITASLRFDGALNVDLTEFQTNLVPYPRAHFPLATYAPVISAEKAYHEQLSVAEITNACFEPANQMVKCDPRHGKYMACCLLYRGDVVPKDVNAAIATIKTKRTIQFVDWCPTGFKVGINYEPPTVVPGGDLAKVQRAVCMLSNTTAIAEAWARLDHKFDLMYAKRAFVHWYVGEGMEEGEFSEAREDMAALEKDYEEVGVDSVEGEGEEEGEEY
Chain of Tubulin (Sus scrofa) (P02554 whole entry, looked up): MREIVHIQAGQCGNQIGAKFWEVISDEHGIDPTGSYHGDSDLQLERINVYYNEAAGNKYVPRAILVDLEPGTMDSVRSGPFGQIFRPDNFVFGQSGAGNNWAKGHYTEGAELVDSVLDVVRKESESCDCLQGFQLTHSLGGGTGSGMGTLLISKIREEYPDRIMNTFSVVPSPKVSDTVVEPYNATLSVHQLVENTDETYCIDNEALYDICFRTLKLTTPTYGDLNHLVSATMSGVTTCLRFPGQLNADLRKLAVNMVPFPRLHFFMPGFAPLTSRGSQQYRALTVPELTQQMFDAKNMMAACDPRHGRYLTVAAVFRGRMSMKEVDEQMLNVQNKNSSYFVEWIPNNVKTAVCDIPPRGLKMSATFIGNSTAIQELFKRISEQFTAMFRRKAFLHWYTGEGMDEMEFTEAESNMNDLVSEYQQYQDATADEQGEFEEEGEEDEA

| SMILES | IC50 (L1210) | IC50 (HCT-116) | IC50 (HCT-116/VM46) | inhibition (Tubulin (Sus scrofa)) |
| --- | --- | --- | --- | --- |
| CC[C@]1(O)C[C@H]2CN(CCc3c([nH]c4ccccc34)[C@@](C(=O)OC)(c3cc4c(cc3OC)N(C)[C@@H]3[C@]45CCN4CCC[C@@](CC)(C[C@]3(O)C(=O)OC)[C@H]45)C2)C1 | 660 nM | 670 nM | 4000 nM | – |
| CC[C@]1(O)C[C@H]2CN(CCc3c([nH]c4ccccc34)[C@@](C(=O)OC)(c3cc4c(cc3OC)N(C)[C@H]3[C@@](O)(C(=O)OC)[C@@H](OC(C)=O)[C@]5(CC)CCN6CCC[C@]43[C@@H]65)C2)C1 | 600 nM | 680 nM | 7600 nM | – |
| CCC1=C[C@H]2CN(CCc3c([nH]c4ccccc34)[C@@](C(=O)OC)(c3cc4c(cc3OC)N(C)[C@H]3[C@@](O)(C(=O)OC)[C@H](OC(C)=O)[C@]5(CC)CCCN6CC[C@]43[C@@H]65)C2)C1 | 740 nM | 890 nM | 3500 nM | – |
| CCC1=C[C@H]2CN(CCc3c([nH]c4ccccc34)[C@@](C(=O)OC)(c3cc4c(cc3OC)N(C)[C@H]3[C@@](O)(C(=O)OC)[C@H](OC(C)=O)[C@]5(CC)CCN6CC[C@]43[C@@H]65)C2)C1 | 700 nM | 630 nM | 7000 nM | – |
| CC[C@]1(O)C[C@H]2CN(CCc3c([nH]c4ccccc34)[C@@](C(=O)OC)(c3cc4c(cc3OC)N(C)[C@H]3[C@@](O)(C(=O)OC)[C@H](OC(C)=O)[C@]5(CC)CCCN6CC[C@]43[C@@H]65)C2)C1 | 570 nM | 370 nM | 4500 nM | 77.4% |
| CC[C@]1(O)C[C@H]2CN(CCc3c([nH]c4ccccc34)[C@@](C(=O)OC)(c3cc4c(cc3OC)N(C)[C@@H]3[C@]45CCCN4CC=C[C@@](CC)(C[C@]3(O)C(=O)OC)[C@H]45)C2)C1 | 370 nM | 430 nM | 5700 nM | 68.5% |
| CC[C@]1(O)C[C@H]2CN(CCc3c([nH]c4ccccc34)[C@@](C(=O)OC)(c3cc4c(cc3OC)N(C)[C@@H]3[C@]45CCCN4CCC[C@@](CC)(C[C@]3(O)C(=O)OC)[C@H]45)C2)C1 | 5700 nM | 7400 nM | > 10000 nM | – |
| CC[C@]1(O)C[C@H]2CN(CCc3c([nH]c4ccccc34)[C@@](C(=O)OC)(c3cc4c(cc3OC)N(C)[C@H]3[C@@](O)(C(=O)OC)[C@H](OC(C)=O)[C@]5(CC)CCN6CC[C@]43[C@@H]65)C2)C1 | 560 nM | 80 nM | 7800 nM | – |
| CC[C@]1(O)C[C@H]2CN(CCc3c([nH]c4ccccc34)[C@@](C(=O)OC)(c3cc4c(cc3OC)N(C)[C@H]3[C@@](O)(C(=O)OC)[C@H](OC(C)=O)[C@]5(CC)CCN6CCC[C@]43[C@@H]65)C2)C1 | 7.2 nM | 6.5 nM | 450 nM | 48.4% |
| CC[C@]1(O)C[C@@H]2CN(CCc3c([nH]c4ccccc34)[C@@](C(=O)OC)(c3cc4c(cc3OC)N(C)[C@H]3[C@@](O)(C(=O)OC)[C@H](OC(C)=O)[C@]5(CC)C=CCN6CC[C@]43[C@@H]65)C2)C1 | – | – | – | 50% |
| CCC1=C[C@@H]2CN(C1)Cc1c([nH]c3ccccc13)[C@@](C(=O)OC)(c1cc3c(cc1OC)N(C)[C@H]1[C@@](O)(C(=O)OC)[C@H](OC(C)=O)[C@]4(CC)C=CCN5CC[C@]31[C@@H]54)C2 [VINORELBINE] | 65 nM | 75 nM | 600 nM | – |
| CC[C@]1(O)C[C@H]2CN(CCc3c([nH]c4ccccc34)[C@@](C(=O)OC)(c3cc4c(cc3OC)N(C)[C@@H]3[C@]45CCCN4CCC[C@@](CC)(C[C@]3(O)C(=O)OC)[C@@H]45)C2)C1 | 55 nM | 80 nM | 900 nM | – |
| CC[C@]1(O)C[C@H]2CN(CCc3c([nH]c4ccccc34)[C@@](C(=O)OC)(c3cc4c(cc3OC)N(C)[C@H]3[C@@](O)(C(=O)OC)[C@@H](OC(C)=O)[C@]5(CC)C=CCN6CC[C@]43[C@@H]65)C2)C1 | 75 nM | 80 nM | 8400 nM | – |
| CC[C@]1(O)C[C@H]2CN(CCc3c([nH]c4ccccc34)[C@@](C(=O)OC)(c3cc4c(cc3OC)N(C)[C@@H]3[C@]45CCCN4CC=C[C@@](CC)(C[C@]3(O)C(=O)OC)[C@@H]45)C2)C1 | 65 nM | 100 nM | 730 nM | – |
| CC[C@]1(O)C[C@H]2CN(CCc3c([nH]c4ccccc34)[C@@](C(=O)OC)(c3cc4c(cc3OC)N(C)[C@@H]3[C@]45CCN4CC=C[C@@](CC)(C[C@]3(O)C(=O)OC)[C@H]45)C2)C1 | 60 nM | 60 nM | 660 nM | – |

From ChEMBL document CHEMBL2311360 (J Med Chem, 2013)
